As usually defined, the inhibition is the share of the control response that was lost under treatment. One may read the IC50 as the concentration that gives 50% inhibition.

The source made the active and inactive calls. No cut-off for these calls is given here.

This is an account of results in ChEMBL document CHEMBL2062405, “Alkaloids from the root of Isatis indigotica” (J Nat Prod, 2012).

Experiment [1] is described as follows: Hepatoprotective activity in rat WB-F344 cells assessed as inhibition of DL-Galactosamine-induced toxicity at 10 uM incubated for 1 hr prior to DL-Galactosamine-challenge measured after 24 hrs by MTT assay. Format: functional. Background: Tetrazolium dyes change colour on reduction, which living cells bring about.
The test system of experiment [2] is Human immunodeficiency virus 1. The experiment can be described thus: Antiviral activity against HIV1 infected in 293T cells cotransfected with VSV-G at 10 uM after 48 hrs by ELISA. Format: functional, organism-based. In general terms: An ELISA detects its analyte on a solid surface through an enzyme-linked reagent.
A further experiment concerns Human alphaherpesvirus 1. Nature of the experiment: Antiviral activity against Herpes simplex virus 1 at 10 uM. The experiment is classed as functional, organism-based.
The subject of another experiment is A549. The experiment can be described thus: Cytotoxicity against human A549 cells at 10 uM after 96 hrs by MTT assay. Format: functional, cell-based.
The test system of the next experiment is BGC-823. The experiment can be described thus: Cytotoxicity against human BGC823 cells at 10 uM after 96 hrs by MTT assay. The experiment is classed as functional, cell-based.
A further experiment concerns MCF7. Nature of the experiment: Cytotoxicity against human MCF7 cells at 10 uM after 96 hrs by MTT assay. The experiment is classed as functional, cell-based.
For the next experiment, the system named is Bel-7402. The experiment can be described thus: Cytotoxicity against human Bel7402 cells at 10 uM after 96 hrs by MTT assay. Format: functional, cell-based.
The subject of the next experiment is KETR3. The experiment can be described thus: Cytotoxicity against human Ketr3 cells at 10 uM after 96 hrs by MTT assay. The experiment is classed as functional, cell-based.
The test system of the next experiment is HCT-8. Nature of the experiment: Cytotoxicity against human HCT8 cells at 10 uM after 96 hrs by MTT assay. Format: functional, cell-based.
In a further experiment the test system is Influenza A virus. Nature of the experiment: Antiviral activity against influenza A virus A/Hanfang/359/95 (H3N2) assessed as inhibition of virus-induced cytopathic effect in cell-based assay. The experiment is classed as functional, organism-based. Background: Cytopathic effects are the visible damage that an infection or toxin causes in cultured cells.

Another experiment deals with Coxsackievirus B3. Nature of the experiment: Antiviral activity against Coxsackievirus B3 assessed as inhibition of viral replication. Format: functional, organism-based. Particulars: Enterovirus B.

For the compound `N#CC[C@H]1C(=O)Nc2cccc(O)c21`, the inhibition at 10 µM in experiment [1] turned out to be 46%. In addition, the outcome (in [2]; in the experiment on Human alphaherpesvirus 1; in the experiment on A549; in the experiment on BGC-823; with MCF7; in the experiment with Bel-7402) was inactive. The outcome with KETR3 and in the experiment on HCT-8 was inactive.

Take `COc1ccc([C@@H](C)c2ccc(O)cc2)c2[nH]cc(CC#N)c12`: the IC50 in the experiment on Influenza A virus came to 3.7 µM. For the same compound, the outcome (in [2]; with Human alphaherpesvirus 1; in the experiment on A549; in the experiment with BGC-823; in the experiment with MCF7; with Bel-7402) was inactive. Also, the outcome in the experiment with KETR3 and in the experiment with HCT-8 was inactive.

With `NC(=O)CC1C(=O)Nc2ccccc21` (racemic), in the experiment on Coxsackievirus B3, the concentration for half-maximal inhibition (IC50) was 6.87 µM. Moreover, the result (in [2]; in the experiment with Human alphaherpesvirus 1; in the experiment with A549; in the experiment on BGC-823; in the experiment on MCF7; in the experiment with Bel-7402) was inactive. Besides, the result with KETR3 and with HCT-8 was inactive.

Turning to `O=C1/C(=C/c2c[nH]c3ccccc23)Nc2ccccc21`, the inhibition at 10 µM in experiment [1] came to 44%. For the same compound, the outcome (in experiment [2]; with Human alphaherpesvirus 1; with A549; in the experiment with BGC-823; in the experiment on MCF7; with Bel-7402) was inactive. The outcome in the experiment with KETR3 and with HCT-8 was inactive.

On to `NC(=O)[C@@H]1CC(=O)Nc2ccccc21`, for which, in experiment [1], the inhibition at 10 µM worked out at 45%. Further, the result (in [2]; in the experiment on Human alphaherpesvirus 1; in the experiment with A549; in the experiment on BGC-823; with MCF7; in the experiment on Bel-7402) was inactive. For the same compound, the result with KETR3 and in the experiment on HCT-8 was inactive.

In the case of `COc1cccc2[nH]cc(C(C#N)c3ccc(OC)c4c(CC#N)c[nH]c34)c12` (single isomer, unassigned), the half-maximal inhibitory concentration (IC50) in the experiment with Influenza A virus worked out at 3.7 µM. The result (in experiment [2]; in the experiment on Human alphaherpesvirus 1; in the experiment with A549; in the experiment on BGC-823; in the experiment on MCF7; in the experiment with Bel-7402) was inactive. The result with KETR3 and in the experiment on HCT-8 was inactive.

Turning to `Cc1cc(CCCOc2c(C)cc(-c3noc(C(F)(F)F)n3)cc2C)on1` [PLECONARIL], the concentration for half-maximal inhibition (IC50) with Coxsackievirus B3 came out at 0.41 µM.

Regarding `CCOC(=O)C1=C[C@@H](OC(CC)CC)[C@H](NC(C)=O)[C@@H](N)C1` [OSELTAMIVIR], the 50% inhibitory concentration (IC50) with Influenza A virus was found to be 1.23 µM.

Regarding `COc1cccc2[nH]cc(CC#N)c12` [ARVELEXIN], in the experiment with Influenza A virus, the 50% inhibitory concentration (IC50) was determined as 3.7 µM. Moreover, the outcome (in [2]; in the experiment on Human alphaherpesvirus 1; in the experiment with A549; in the experiment on BGC-823; in the experiment with MCF7; in the experiment with Bel-7402) was inactive. Moreover, the result with KETR3 and in the experiment with HCT-8 was inactive.

With `COc1cccc2c1[C@@](O)(CC#N)C(=O)N2`, in [1], the inhibition at 10 µM was determined as 47%. Besides, the outcome (in experiment [2]; in the experiment with Human alphaherpesvirus 1; in the experiment on A549; in the experiment with BGC-823; in the experiment on MCF7; in the experiment on Bel-7402) was inactive. The result in the experiment with KETR3 and in the experiment on HCT-8 was inactive.

Turning to `COc1ccc(C(C#N)c2c[nH]c3ccccc23)c2[nH]cc(CC#N)c12` (single isomer, unassigned), the IC50 in the experiment with Influenza A virus worked out at 3.7 µM. The result (in experiment [2]; with Human alphaherpesvirus 1; in the experiment on A549; in the experiment on BGC-823; in the experiment on MCF7; in the experiment on Bel-7402) was inactive. In addition, the result with KETR3 and in the experiment on HCT-8 was inactive.
